# Marks after values point to notes of the source that are not given here.
# Experiments:
# [1] = system: leukocyte migration in 4 dpf zebrafish larvae; assay: LPS-enhanced leukocyte migration assay (tail transection, MPO staining, RLM); assay type: in vivo, zebrafish (Danio rerio); design: Anti-inflammatory activity at MTC: concentration or dose not given beside the values
# Experimental: The lipopolysaccharide- (LPS−)enhanced leukocyte migration assay was carried out by triplicate for each sample in 4 dpf zebrafish larvae. The total incubation period of the assay was eight hours. Initially, a pre-incubation step (i.e. prior to tail transection) of one hour at 28°C (±0.5°C) was carried out in 24-well culture plates. Ten larvae per well were incubated in 1 ml of testing mix, consisting of a specific concentration of each sample and the amount of 0.3 X Danieau’s medium necessary to complete 1 ml. Immediately after pre-incubation, complete tail transection in each larva was performed. Zebrafish larvae were first anesthetized by immersion in 0.3 X Danieau’s medium containing 70 µg/ml tricaine (ethyl 3-aminobenzoate, Sigma-Aldrich) and then tail transection near the tip was performed with a sterile scalpel under light microscopy (Carl Zeiss Stemi 2000C). Larvae were then placed in fresh 0.3 X Danieau’s medium without anesthetic for a few minutes until the final incubation period. For the last step, a new testing mix was prepared including 10 µg/ml lipopolysaccharides from Salmonella typhosa ATCC 10749 (LPS, Sigma-Aldrich Chemical) to enhance leukocyte migration to the injured zone. The final incubation step (i.e. subsequent to tail transection) of the injured larvae in contact with the pro-inflammatory agent and with the specific concentration of each SAID, NSAID, non-AID, NP, and PE at 28°C (±0.5°C) was done for 7 h. Within this period, sporadic evaluations of the larvae were done to examine their viability during the time of the assay. Larvae that completed the incubation time were fixed overnight in 4% formaldehyde (Sigma-Aldrich) at 4°C. Controls containing only the vehicle (1% DMSO) were processed in parallel.
# Fixed larvae were gently washed twice with 1 X PBST (PBS-1X phosphate buffered saline, Gibco +0.1% Tween 20) for 5–10 min and then incubated at room temperature in 1 ml of freshly prepared Leucognost® Pox (Merck) staining solution, made according the directions of the provider. Observation of stained black-brown cells (leukocytes) in the larvae was possible within 15 min of incubation. Evaluation of the migrating leukocytes, particularly surrounding the injured region, in each larva was done under light microscopy (Carl Zeiss Stemi 2000C) and scoring was done using a migration scale established to semi-quantify the amount of migrating leukocytes on one side of each larva.
# The average of the value achieved for each of the ten larvae tested in triplicate for one sample is expressed as relative leukocyte migration (RLM) according to the formula: RLM = leukocyte migration of the larva/average leukocyte migration of the negative control.
# To determine the extent of leukocyte migration generated after exposing 4 dpf zebrafish larvae to mechanical and biological stimuli – namely tail transection and LPS exposure – we used a commercially available whole-mount cytochemical staining method (Leucognost® Pox, Merck) to detect MPO activity in situ. To minimize the number of handling steps post-staining, this method was chosen over the alternative myeloperoxidase stain Sudan Black B [26], [27], which also stains phospholipids, neural fats and sterols. In our experiments, we visualized migrating leukocytes in 4 dpf larvae at 8 h post-injury. Microscopic evaluations of MPO-stained larvae allowed us to score the degree of leukocyte migration at the trauma site according to a comparative scale that we established particularly for this purpose (Figure 2). Myeloperoxidase-positive cells, appearing as black-brown dots, were counted in a segment at the edge of the tail on one side of every larva (Figure 2). The number of leukocytes was then graded according to the comparative scale and subsequently converted into a relative value expressed as the relative leukocyte migration (RLM) activity for the total number or larvae for one sample.
# NO, RAW 264.7 = system: NO, RAW 264.7; design: method as in PMID 15621702, PMID 19678956, PMID 19885845; details: cited from earlier work
# zebrafish larvae = details: 4 dpf zebrafish larvae, 8 h post-incubation; not more than 2 of 10 larvae with signs of toxicity
# Experimental: For the toxicological analysis, ten 4 dpf zebrafish larvae were used per well in 24-well culture plates. Incubation of each set of larvae at 28°C (±0.5) was done with SAIDs, NSAIDs and non-AIDs at concentrations ranging from 0.1 µM to 500 µM, with NPs at concentrations ranging from 1 µM to 500 µM, and with PEs at concentrations ranging from 1 ug/ml to 1 mg/ml. Controls containing only vehicle (1% DMSO) and untreated larvae were processed in parallel. Examination of each set of larvae was done under light microscopy (Carl Zeiss Stemi 2000C) each hour during a period of 8 h, and a final evaluation at 24 h post-incubation. At 8 h post-incubation, signs of toxicity, e.g. pericardial oedema, cardiovascular defects (arrhythmia or decreased circulation), balance defects (loss of normal posture), locomotor defects (decreased touch response), and ultimately death were scored for every drug, NP, and PE to further establish their maximum tolerated concentration (MTC). […] In this context, only non-toxic concentrations (below the MTC) were considered for further leukocyte migration analysis. All the toxicological assays were performed in duplicate using a different batch of zebrafish larvae for each set of experiments.
# Toxicological assessment of all the samples analyzed in our study was done prior to the evaluation of their anti-inflammatory properties. The maximum tolerated concentrations (MTCs) were determined at 8 h post-treatment according to toxicological parameters including pericardial oedema, cardiovascular defects (arrhythmia or decreased circulation), balance defects (loss of normal posture), locomotor defects (decreased touch response), and death. […] Vehicle-treated (1% DMSO) and untreated larvae were processed in parallel to minimize experimental variability in this toxicological evaluation.
smiles,measurement,setting,value
"O=C(O)/C=C/c1ccc(O)c(O)c1 [Caffeic acid, caffeic acid]",Leukocyte migration (RLM),"[1]; 500 µM, tail cut + 10 µg/ml LPS, relative to 1% DMSO control",0.14 ^**
same,response vs control in vivo at 1 µM,"[1]; Danio rerio, Leukocyte, 8 h, 1 µM, tail cut + 10 µg/ml LPS, relative to 1% DMSO control",80%
same,response vs control in vivo at 10 µM,"[1]; Danio rerio, Leukocyte, 8 h, 10 µM, tail cut + 10 µg/ml LPS, relative to 1% DMSO control",71%
same,response vs control in vivo at 30 µM,"[1]; Danio rerio, Leukocyte, 8 h, 30 µM, tail cut + 10 µg/ml LPS, relative to 1% DMSO control",59%
same,response vs control in vivo at 100 µM,"[1]; Danio rerio, Leukocyte, 8 h, 100 µM, tail cut + 10 µg/ml LPS, relative to 1% DMSO control",59%
same,response vs control in vivo at 300 µM,"[1]; Danio rerio, Leukocyte, 8 h, 300 µM, tail cut + 10 µg/ml LPS, relative to 1% DMSO control",34%
same,response vs control in vivo at 500 µM,"[1]; Danio rerio, Leukocyte, 8 h, 500 µM, tail cut + 10 µg/ml LPS, relative to 1% DMSO control",14%
same,Anti-inflammatory activity at MTC,"[1]; at MTC, (1−RLM)x100",86%
same,RLM (zebrafish-based assay),[1]; at the MTC given in Table 2,0.14
same,IC50,"NO, RAW 264.7",4.8 µM
same,Maximum tolerated concentration (MTC),zebrafish larvae,500 µM
